Measurements: ChEMBL document CHEMBL1201862, “PubChem BioAssay data set” (2004)
The source made the active and inactive calls.

Columns and labels:
[1] = target: Photoreceptor-specific nuclear receptor (Homo sapiens, UniProt Q9Y5X4); type: functional;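 further: potency for compounds that break the NR2E3 corepressor complex and count as activators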
[2] = target: Peroxisome proliferator-activated receptor gamma/Nuclear receptor corepressor 2 (Homo sapiens, UniProt P37231+Q9Y618); type: functional
[3] = target: Major prion protein (Homo sapiens, UniProt P04156); type: functional, cell-based
[4] = cells
[5] = target: T1, Sentrin-specific protease 1 (Homo sapiens, UniProt Q9P0U3); experiment: potency of human SENP1 inhibitors, dose response, biochemical, kinetic FRET (AID 651697); type: functional; conditions: read-out: IC50_Mean
T1 sequence (Q9P0U3 whole entry): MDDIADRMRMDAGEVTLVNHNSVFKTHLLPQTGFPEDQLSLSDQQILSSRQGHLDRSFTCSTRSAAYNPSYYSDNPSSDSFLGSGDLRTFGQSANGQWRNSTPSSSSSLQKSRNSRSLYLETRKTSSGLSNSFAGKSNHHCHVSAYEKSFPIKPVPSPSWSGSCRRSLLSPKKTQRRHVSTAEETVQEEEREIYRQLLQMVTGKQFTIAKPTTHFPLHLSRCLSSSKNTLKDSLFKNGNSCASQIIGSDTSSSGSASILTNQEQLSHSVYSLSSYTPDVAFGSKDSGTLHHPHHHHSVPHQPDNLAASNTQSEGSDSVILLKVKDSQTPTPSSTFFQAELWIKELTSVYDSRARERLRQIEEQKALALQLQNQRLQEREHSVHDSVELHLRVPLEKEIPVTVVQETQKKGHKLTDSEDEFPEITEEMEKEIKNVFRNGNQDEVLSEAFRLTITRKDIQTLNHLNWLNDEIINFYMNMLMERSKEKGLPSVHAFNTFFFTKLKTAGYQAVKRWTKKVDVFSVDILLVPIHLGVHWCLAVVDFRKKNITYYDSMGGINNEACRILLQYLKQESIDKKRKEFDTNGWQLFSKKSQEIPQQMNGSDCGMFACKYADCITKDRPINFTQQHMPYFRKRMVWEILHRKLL

[6] = target: T1, Sentrin-specific protease 1; experiment: Dose response confirmation of small molecule inhibitors of the catalytic domain of the SUMO protease, SENP1 in a FRET assay.; type: functional; conditions: read-out: IC50_Mean
[7] = target: Fructose-bisphosphate aldolase (Mycobacterium tuberculosis, UniProt P9WQA3); experiment: Fluorescence-based biochemical high throughput dose response assay for inhibitors of the fructose-bisphosphate aldolase (FBA) of M. tuberculosis.; type: functional
[8] = target: Beta-galactosidase (Escherichia coli, UniProt Q8VNN2); experiment: Dose response counterscreen for EBI2 assay utilizing the enzyme, b-galactosidase.; type: functional
[9] = target: T2, Heat shock factor protein 1 (Mus musculus, UniProt P38532); experiment: inhibition of MG132-induced HSE-luciferase signal, confirmation, cell-based, NIH3T3, luminescence, dose retest (AID 2382); type: functional;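 further: NIH3T3 fibroblasts with HSF1-driven luciferase reporter stressed by proteasome inhibitor MG132; luminescence from HSF1-driven luciferase expression after 8 hours of MG132 stress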
T2 sequence (P38532 whole entry): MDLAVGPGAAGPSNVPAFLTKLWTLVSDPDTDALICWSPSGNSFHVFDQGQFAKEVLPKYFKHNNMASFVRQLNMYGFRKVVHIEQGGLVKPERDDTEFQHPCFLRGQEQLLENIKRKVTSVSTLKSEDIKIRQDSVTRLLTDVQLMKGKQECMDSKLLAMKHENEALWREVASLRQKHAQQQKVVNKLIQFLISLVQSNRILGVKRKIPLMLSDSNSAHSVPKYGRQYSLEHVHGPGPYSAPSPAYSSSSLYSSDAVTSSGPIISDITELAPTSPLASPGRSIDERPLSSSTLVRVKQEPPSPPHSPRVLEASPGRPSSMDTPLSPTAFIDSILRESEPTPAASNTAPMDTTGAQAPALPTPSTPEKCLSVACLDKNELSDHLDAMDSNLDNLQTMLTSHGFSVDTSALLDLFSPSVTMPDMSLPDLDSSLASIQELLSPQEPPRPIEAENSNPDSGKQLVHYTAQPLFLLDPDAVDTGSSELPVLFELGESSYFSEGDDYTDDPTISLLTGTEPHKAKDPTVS

[10] = target: Nonstructural protein 1 (Influenza A virus, UniProt Q194T2); type: functional, Influenza A virus (A/California/07/2009(H1N1))
[11] = AlphaScreen signal interference compounds, dose response, artefact control for ARNT-TACC3 interaction inhibitor project, biochemical, luminescence, cherry-pick (AID 651705); type: functional;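 further: AlphaScreen bead proximity signal that flags compounds interfering with the detection technology; potency reflects signal decrease which marks the compound as an assay artifact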
[12] = target: Long-chain-fatty-acid--AMP ligase FadD28 (Mycobacterium tuberculosis, UniProt P9WQ59); experiment: Fluorescence polarization aasay to screen for inhibitors that compete for the binding of FadD28 to a bisubstrate Measured in Biochemical System Using Plate Reader - 2147-01_Inhibitor_Dose_CherryPick_Activity.; type: functional, Mycobacterium tuberculosis H37Rv
[13] = ADAM10 inhibitors, peptide cleavage, dose response, biochemical, QFRET (AID 743254);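 further: ADAM10 enzyme with the DM2 quenched FRET peptide as substrate; EDANS fluorescence gain as the protease cuts the substrate; inhibitor potency against ADAM10 proteolytic activity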
[14] = Luminescence Cell-Based Dose Confirmation HTS to Identify Activators of 5'UTR Stem-Loop Driven Alpha-Synuclein mRNA Translation in H4 Neuroglioblastoma Cells. [Related pubchem assays: 1829 (Project Summary), 1814 (Primary HTS)]; type: functional
[15] = Luminescence Cell-Based Dose Response HTS to Identify Activators of Luciferase Translation or Activity in H4 […] Cells. [Related pubchem assays: 1829 (Project Summary), 1814 (Primary HTS)]; type: functional
[16] = tested on: H4; experiment: Luminescence Cell-Based Dose Response HTS to Identify Activators of 5'UTR Stem-Loop Driven Prion Protein mRNA Translation in H4 Neuroglioblastoma Cells. [Related pubchem assays: 1829 (Project Summary), 1814 (Primary HTS)]; type: functional; conditions: Homo sapiens
[17] = target: T3, Probable nicotinate-nucleotide adenylyltransferase (Staphylococcus aureus (strain N315), UniProt P65502); type: functional, Staphylococcus aureus subsp. aureus N315;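 on IC50 Mean: confirmatory dose-response retesting of NadD inhibitor hits first found in an ultra-high-throughput screen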
[18] = target: T3, Probable nicotinate-nucleotide adenylyltransferase; type: functional, Staphylococcus aureus subsp. aureus N315; conditions: read-out: IC50_Mean
[19] = target: T4, Sphingosine 1-phosphate receptor 4 (Homo sapiens, UniProt O95977); experiment: Fluorescence dose response cell-based high throughput screening assay for antagonists of the Sphingosine 1-Phosphate Receptor 4 (S1P4). [Related pubchem assays: 1524 (Confirmation in triplicates.), 1510 (Primary screen.)]; type: functional
T4 sequence (O95977 whole entry): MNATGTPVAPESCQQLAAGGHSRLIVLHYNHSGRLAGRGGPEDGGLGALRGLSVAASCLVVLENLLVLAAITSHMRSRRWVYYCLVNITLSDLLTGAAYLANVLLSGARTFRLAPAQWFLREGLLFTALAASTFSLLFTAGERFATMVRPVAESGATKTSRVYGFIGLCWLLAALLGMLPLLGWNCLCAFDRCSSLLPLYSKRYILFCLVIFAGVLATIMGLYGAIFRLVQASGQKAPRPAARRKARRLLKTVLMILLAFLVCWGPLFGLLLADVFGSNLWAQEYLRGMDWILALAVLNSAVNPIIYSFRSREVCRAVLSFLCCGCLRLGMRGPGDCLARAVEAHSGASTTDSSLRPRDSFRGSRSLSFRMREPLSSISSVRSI

[20] = target: Sphingosine 1-phosphate receptor 1 (Homo sapiens, UniProt P21453); type: functional;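 further: Tango beta-arrestin reporter U2OS cells stimulated with S1P near its EC80; inhibitor potency meaning antagonism of receptor activation by the natural agonist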
[21] = target: Dual specificity tyrosine-phosphorylation-regulated kinase 1A (Rattus norvegicus, UniProt Q63470); type: biochemical, Homo sapiens
[22] = target: Melanocortin receptor 4 (Homo sapiens, UniProt P32245); experiment: MC4R antagonist potency on cAMP, dose response, cell-based, TR-FRET, biased antagonists (AID 602298); type: functional;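 further: antagonist potency against agonist-stimulated cAMP production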
[23] = target: T5, Polyadenylate-binding protein 1 (Homo sapiens, UniProt P11940); experiment: PABP1 MLLE–PAM2 interaction inhibitors, dose response, miRNA deadenylation inhibitor project, biochemical, fluorescence polarization, Cy5-PAM2 peptide, secondary (AID 602260); type: functional; conditions: read-out: IC50_Mean
[24] = target: T5, Polyadenylate-binding protein 1; experiment: PABP1 MLLE–PAM2 binding inhibitor potency, dose response, biochemical, fluorescence polarization, FITC-PAM2 peptide (AID 602259); type: functional; conditions: read-out: IC50_Mean
[25] = nonselective inhibitors of cellular cAMP signaling, dose response, counter-screen for MC4R biased antagonist project, cell-based, TR-FRET cAMP detection (AID 602305); type: functional;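 further: U2OS cells stimulated with forskolin near its EC80 as the cAMP inducer; potency is for inhibition of forskolin-stimulated cAMP signaling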
[26] = inhibitors of HIV Env-driven cell fusion, dose response, cherry-pick (AID 652057); type: functional, cell-based
[27] = target: Galanin receptor type 3 (Homo sapiens, UniProt O60755); experiment: Fluorescence-based cell-based primary high throughput dose response assay to identify antagonists of the Galanin Receptor 3 (GalR3).; type: functional
[28] = cells; type: functional, cell-based; conditions: HEK-CNG
[29] = CEM21 lymphoblast cell cytotoxicity, dose response, cytotoxicity control for viral fusion inhibitor project, CellTiter-Glo luminescence, cherry-picked (AID 652042); type: functional, cell-based;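 further: potency for signal decrease meaning cytotoxicity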
[30] = ZM109 Env clade C HIV-1 fusion inhibitors, dose response, HeLa effector, CEM target cells, luciferase, cherry-pick (AID 652058); type: functional, cell-based
[31] = target: Paired box protein Pax-8 (Homo sapiens, UniProt Q06710); experiment: inhibitors of PAX8-driven TPO luciferase reporter, dose response, RMG-I cells, cherry-pick (AID 687027); type: functional, cell-based;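 further: luciferase reporter driven by Pax8 target thyroperoxidase promoter measured by SteadyGlo luminescence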
[32] = off-target signal loss in HeLa-CEM21 co-culture – HeLa F-luc CTL cells, cherry-picked, counter-screen for HIV-1 Env fusion inhibitor project, dose response (AID 652040); type: functional, cell-based;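 further: potency for signal decrease marking cytotoxic or nonspecific inhibition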
[33] = inhibitors of clade B AD8 Env fusion, dose response, cell-based, cherry-pick (AID 652062); type: functional;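 further: luciferase signal from cell-cell fusion driven by HIV-1 clade B AD8 Env; potency is for inhibitors of fusion seen as a drop in luminescence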
[34] = intracellular Trypanosoma cruzi inhibitors in host cells – cell-based, plate reader, cherry-pick samples, set 3, dose response (AID 651818); type: functional;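 further: compounds incubated with infected cells for about four days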
[35] = T. cruzi growth inhibition in host cells, dose response, cell-based, plate reader, dry powder, set 2 (AID 652275); type: functional
[36] = T. cruzi intracellular amastigote growth inhibition, dose response, imaging, CA-I/72 strain, bovine embryo skeletal muscle, dry powder (AID 651885); type: functional, cell-based

CC(C)C1Cc2ccccc2-c2[nH]c(=S)[nH]c(=O)c21 (stereo unspecified)
IC50 [1]: > 39.8 µM (not active) | IC50 [2]: 4.66 µM (active) | IC50 [3]: 4.87 µM (active)

CC(C)C1Cc2ccccc2-c2nc(S)nc(O)c21 (stereo unspecified)
IC50 [4]: > 138 µM (inactive)

Nc1nc(N)c2sc3nc(C(F)(F)F)cc(C(F)(F)F)c3c2n1
IC50 [5]: 30 µM (inactive) | IC50 [6]: 16.7 µM (active)

Cc1cccc(C)c1NC(=S)Nc1ccccc1C(=O)NCc1ccco1
IC50 [7]: 6.61 µM (active)

COc1ccc(OCC(=O)Nc2ccc(N3CCOCC3)cc2)cc1
IC50 [8]: > 80 µM (inactive)

O=C(NCCCn1ccnc1)C(=O)NCC1OCCN1S(=O)(=O)c1cc(F)ccc1F (stereo unspecified)
EC50 [9]: 128 µM (active) | IC50 [10]: 12.7 µM (active) | AC50 [11]: 84.5 µM (active)

COc1ccc(/C=C2\SC(=O)N(CC(=O)Nc3cccc(C)c3)C2=O)cc1O
AC50 [12]: 1.47 µM (active)

Cc1ccc(C(=O)Nc2nnc(N=C(S)Nc3ccccc3)s2)cc1
IC50 [13]: > 69.5 µM (inactive)

COc1ccc(-c2ccc(-c3nc4ccc(C)cn4c3NC3CCCCC3)cc2OC)cc1
IC50 [8]: 77.5 µM (inactive)

Cc1ccc(Nc2nc(Nc3ccc(C)cc3)nc(SC3=NCCS3)n2)cc1
EC50 [14]: > 120 µM (not active) | EC50 [15]: > 120 µM (not active) | EC50 [16]: 17.6 µM (active) | IC50 [17]: 28.6 µM (active) | IC50 [18]: 53.6 µM (active)

Cc1ccc(-n2nc3c(SCCN4CCOCC4)nnc(C)c3c2C)cc1
IC50 [3]: 12.8 µM (inactive) | IC50 [4]: > 138 µM (inactive)

COc1ccc(CNCc2ccc(OC)c3ccccc23)cc1
IC50 [7]: > 10 µM (inactive)

NC(=S)c1cn([C@@H]2O[C@H](CO)[C@@H](O)[C@H]2O)c2ncnc(N)c12
IC50 [19]: 0.42 µM (active) | IC50 [20]: 1.96 µM (active) | AC50 [21]: 0.158 µM (active) | IC50 [22]: > 64.6 µM (inactive) | IC50 [23]: > 66 µM (inactive) | IC50 [24]: > 66 µM (inactive) | IC50 [25]: > 64.6 µM (inactive) | AC50 [26]: < 0.26 µM (active) | IC50 [27]: 1.01 µM (active) | EC50 [28]: > 29.9 µM (inactive) | AC50 [29]: 0.344 µM (active) | AC50 [30]: < 0.26 µM (active) | AC50 [31]: 0.294 µM (active) | AC50 [32]: < 0.26 µM (active) | AC50 [33]: < 0.26 µM (active)

Cn1c(=O)c2cc(NC(=S)NC3CCCCC3)ccc2n1C/C=C/c1ccccc1
AC50 [12]: > 100 µM (inactive)

C[C@@H]1CN([C@@H](C)CO)C(=O)c2cccc(NC(=O)c3ccncc3)c2O[C@H]1CN(C)CC1CCCCC1
AC50 [34]: 0.636 µM (active) | AC50 [26]: 0.4 µM (active) | AC50 [30]: 0.953 µM (active) | AC50 [33]: 1.96 µM (active) | AC50 [35]: 0.182 µM (active) | IC50 [36]: 0.74 µM (active)

CC(=O)Nc1cc(-c2ccc(N3CCN(C)CC3)cc2)cn2c(-c3ccccc3)cnc12
IC50 [5]: 24.1 µM (inactive) | IC50 [6]: 12.2 µM (active)
